For orientation: IC50 means the midpoint of a concentration-inhibition curve. The low end stands for inhibition by little substance, the high end for a need for much substance.

This note sets out measurements from ChEMBL document CHEMBL3992499, “Synthesis, biological evaluation, QSAR and molecular dynamics simulation studies of potential fibroblast growth factor receptor 1 inhibitors for the treatment of gastric cancer” (Eur J Med Chem, 2017).

Active and inactive are the calls of the source. The rule behind the calls is not given here. Some results are limits rather than exact numbers.

The subject of assay [1] is SGC-7901. Description: Induction of apoptosis in human SGC7901 cells assessed as downregulation of Cyclin D1 expression by western blot method. The class given is functional, cell-based. (A western blot detects proteins with antibodies after separation by electrophoresis.)
In assay [2] the test system is SGC-7901. Description: Induction of apoptosis in human SGC7901 cells assessed as nuclear fragmentation up to 20 uM after 12 hrs by Hoechst 33342 staining based fluorescence microscopic method. The class given is functional, cell-based.
In assay [3] the test system is SGC-7901. Put plainly: Induction of apoptosis in human SGC7901 cells assessed as chromatin condensation after 12 hrs by Hoechst 33342 staining based fluorescence microscopic method. The class given is functional, cell-based.
Assay [4] concerns SGC-7901. Put plainly: Induction of apoptosis in human SGC7901 cells assessed as decrease in Bcl2 expression level after 48 hrs by Western blot method. Type of assay: functional, cell-based.
Assay [5] has as its system MGC-803. Put plainly: Antiproliferative activity against human MGC803 cells after 72 hrs by MTT assay. Particulars: MGC-803, 72 h. On the technique in general: Tetrazolium dyes change colour on reduction, which living cells bring about.
Assay [6] relates to SGC-7901. Put plainly: Cell cycle arrest in human SGC7901 cells assessed as accumulation at G0/G1 phase after 8 hrs by propidium iodide staining based flow cytometry. The class given is functional. A general note: Flow cytometry measures light scatter and fluorescence of single cells or particles in a stream.
Assay [7] concerns SGC-7901. Description: Induction of apoptosis in human SGC7901 cells assessed as increase in cleaved PARP expression level at 10 uM after 48 hrs by Western blot method. The class given is functional, cell-based.
Assay [8] concerns SGC-7901. Description: Antiproliferative activity against human SGC7901 cells after 72 hrs by MTT assay. To be noted: SGC-7901, 72 h.
For assay [9], the system named is SGC-7901. Put plainly: Induction of apoptosis in human SGC7901 cells assessed as decrease in Bcl2 expression level at 10 uM after 48 hrs by Western blot method. The class given is functional, cell-based.
For assay [10], the system named is SGC-7901. Description: Cell cycle arrest in human SGC7901 cells assessed as reduction in G2/M phase up to 20 uM after 8 hrs by propidium iodide staining based flow cytometry. The class given is functional.
Assay [11] has as its system BGC-823. Description: Antiproliferative activity against human BGC823 cells after 72 hrs by MTT assay. To be noted: BGC-823, 72 h.
The test system of assay [12] is SGC-7901. Description: Induction of apoptosis in human SGC7901 cells assessed as increase in cleaved PARP expression level after 48 hrs by Western blot method. Type of assay: functional, cell-based.

For the compound `CCN(CC)c1ccc(/C=C/C(=O)/C=C/c2ccc(O)c(OC)c2)cc1`, the Activity entry in assay [1], in [3], in assay [4], in assay [6] and in assay [12] was “Dose-dependent effect” throughout. For the same compound, the result in assay [2], in assay [7], in assay [9] and in [10] was Active. In addition, the IC50 in [5] was 2.1 µM; in assay [8], 8.2 µM; in [11], 2.5 µM.
`COc1cc(/C=C2\CCC/C(=C\c3ccc(N4CCCCC4)cc3)C2=O)ccc1OC(=O)C(C)C`: the values for the IC50 in assay [5], in assay [8] and in assay [11] were 11.8 µM, 18.8 µM and 31.5 µM, respectively.
As to `CCC(=O)Oc1ccc(/C=C2\CC/C(=C\c3ccc(OC(=O)CC)c(OC)c3)C2=O)cc1OC`, the IC50 was found to be 8.3 µM in assay [5], 4.7 µM in [8] and 11.9 µM in assay [11].
Turning to `COc1cc(/C=C/C(=O)/C=C/c2ccc(N3CCCC3)cc2)ccc1O`, the values for the IC50 in assay [5], in assay [8] and in assay [11] were 12.3 µM, 8.2 µM and 21.2 µM, respectively.
With `COc1cc(/C=C2\CC/C(=C\c3c[nH]c4ccc(Br)cc34)C2=O)ccc1O`, the Activity entry in assay [1], in assay [3], in [4], in [6] and in assay [12] was “Dose-dependent effect” in each case. In addition, the result in assay [2], in assay [7], in assay [9] and in assay [10] was Active. For the same compound, the figures for the half-inhibitory concentration (IC50) in assay [5], in assay [8] and in assay [11] were 2.6 µM, 9.6 µM and 2 µM, respectively.
Take `COc1cc(/C=C2\CC/C(=C\c3ccc(OC(=O)C(C)C)c(OC)c3)C2=O)ccc1OC(=O)C(C)C`: the IC50 in [5] worked out at 5 µM; in [8] it was 5.7 µM; in assay [11], 10.1 µM.
With `COc1cc(CCc2cc(NC(=O)c3ccc(N4C[C@@H](C)N[C@@H](C)C4)cc3)n[nH]2)cc(OC)c1` [FEXAGRATINIB], the IC50 in [5] was found to be 6.2 µM; in assay [8] it was 2.8 µM; in assay [11], 7.9 µM.
For `CC(Cc1ccc(O)c(O)c1)C(C)Cc1ccc(O)c(O)c1` (configuration not stated) [NORDIHYDROGUAIARETIC ACID], the values for the IC50 in [5], in [8] and in [11] were 45.8 µM, greater than 60 µM and greater than 60 µM, respectively.
